Counter-ions that a name gives are not always drawn.
Key:
Format in all cases: biochemical
[1] = target: T1, RET (Homo sapiens, UniProt P07949); assay: Inhibition of RET kinase activity, recombinant RET method (Kinase-Glo); conditions: RET 2 μg/ml, poly-EY4 substrate, 20 μM ATP, two hours at 30° C.
T1 construct: purchased Upstate 14-570MG
Outline: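 Recombinant RET at 2 μg/ml in 20 mM MOPS/NaOH pH 7.0, 1 mM EDTA, 5% glycerol, 0.01% Brij35, 0.1% 2-mercaptoethanol, 1 mg/ml BSA; compounds 10 nM–30 μM final.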

[2] = target: T2, TrkA (Homo sapiens, UniProt P04629); assay: Inhibition of kinase TrkA (Kinase-Glo); conditions: TrkA 4 μg/ml, 30 μM ATP, two hours at 30° C.
T2 construct: purchased Upstate 14-571
T2 sequence (P04629 33-796): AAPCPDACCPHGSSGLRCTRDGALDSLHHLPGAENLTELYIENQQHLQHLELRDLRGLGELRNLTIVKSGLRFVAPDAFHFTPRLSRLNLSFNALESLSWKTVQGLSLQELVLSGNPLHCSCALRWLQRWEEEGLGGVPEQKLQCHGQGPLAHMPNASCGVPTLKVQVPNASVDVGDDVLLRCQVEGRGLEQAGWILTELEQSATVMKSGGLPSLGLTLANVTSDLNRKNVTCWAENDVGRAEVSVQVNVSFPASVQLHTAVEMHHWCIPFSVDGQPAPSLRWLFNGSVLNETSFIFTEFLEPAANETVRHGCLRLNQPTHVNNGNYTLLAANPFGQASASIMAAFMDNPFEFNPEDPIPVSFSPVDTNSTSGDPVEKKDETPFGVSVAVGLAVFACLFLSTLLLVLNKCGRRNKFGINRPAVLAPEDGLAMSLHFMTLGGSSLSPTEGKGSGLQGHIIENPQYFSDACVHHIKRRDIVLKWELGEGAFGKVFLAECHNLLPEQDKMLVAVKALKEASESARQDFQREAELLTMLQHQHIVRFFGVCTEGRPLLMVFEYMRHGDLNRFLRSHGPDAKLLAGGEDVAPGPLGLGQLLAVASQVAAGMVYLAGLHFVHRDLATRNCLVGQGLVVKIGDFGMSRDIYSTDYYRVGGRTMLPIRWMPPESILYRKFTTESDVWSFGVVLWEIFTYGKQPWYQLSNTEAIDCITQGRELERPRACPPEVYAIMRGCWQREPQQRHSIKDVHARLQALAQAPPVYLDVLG
Protocol: Protein TrkA (Upstate 14-571; batch #25634U) is incubated at a concentration of 4 μg/ml in a buffer containing 8 mM of MOPS/NaOH pH7, 0.2 mM EDTA, 40 mM MgAc (Sigma #229768), 1 mM DTT (Fluka #43816), NaOV 1 mM, 0.01% Triton Tx100, in the presence of 1 mg/ml of peptide substrate poly-EY (Upstate #P0275), and 30 μM of ATP.
The dilution buffer for TrkA is as follows: 20 mM MOPS/NaOH pH7, 1 mM EDTA, 5% glycerol, 0.01% Brij35, 0.1% 2-mercapto, 1 mg/ml BSA.
(§1) The compound to be tested is first added to the enzyme to give a reaction volume of 50 μl. The dilution of the compounds of the invention is distributed so as to obtain a scale of final concentrations between 10 nM and 30 μM.
(§2) After incubation of the reaction mixture for two hours at 30° C., the level of ATP that remains is assayed using the Kinase-Glo Luminescent Kinase Assay (Promega #V6712) according to the conditions recommended by the supplier. The luminescence induced is read in a plate reader (Envision-Perkin Elmer).

[3] = target: T3, TrkB (Homo sapiens, UniProt Q16620); assay: Inhibition of kinase TrkB (Kinase-Glo); conditions: TrkB 4 μg/ml, 40 μM ATP, two hours at 30° C.
T3 construct: purchased Upstate 14-507
T3 sequence (Q16620 32-822): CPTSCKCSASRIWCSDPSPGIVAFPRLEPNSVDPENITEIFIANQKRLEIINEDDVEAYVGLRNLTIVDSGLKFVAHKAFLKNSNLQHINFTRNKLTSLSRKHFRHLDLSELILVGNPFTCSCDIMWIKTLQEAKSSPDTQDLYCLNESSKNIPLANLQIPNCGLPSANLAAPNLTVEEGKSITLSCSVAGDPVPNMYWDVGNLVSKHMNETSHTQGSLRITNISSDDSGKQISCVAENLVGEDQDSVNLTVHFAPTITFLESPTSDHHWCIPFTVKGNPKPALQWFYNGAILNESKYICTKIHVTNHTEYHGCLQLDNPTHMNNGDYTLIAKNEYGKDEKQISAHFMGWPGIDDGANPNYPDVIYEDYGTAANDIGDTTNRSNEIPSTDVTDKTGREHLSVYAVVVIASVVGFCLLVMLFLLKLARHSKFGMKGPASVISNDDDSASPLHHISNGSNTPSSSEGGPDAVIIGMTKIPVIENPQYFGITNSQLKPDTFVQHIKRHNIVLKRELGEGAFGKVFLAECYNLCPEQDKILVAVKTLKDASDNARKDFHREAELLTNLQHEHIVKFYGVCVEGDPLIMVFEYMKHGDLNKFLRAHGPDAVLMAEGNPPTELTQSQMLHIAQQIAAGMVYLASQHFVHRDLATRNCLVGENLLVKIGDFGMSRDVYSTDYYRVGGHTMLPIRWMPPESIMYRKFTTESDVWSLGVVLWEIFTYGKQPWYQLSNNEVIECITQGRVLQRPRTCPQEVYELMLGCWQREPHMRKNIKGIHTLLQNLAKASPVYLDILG
Protocol: Protein TrkB (Upstate 14-507; batch #25578U) is incubated at a concentration of 4 μg/ml in a buffer containing 8 mM of MOPS/NaOH pH7, 0.2 mM EDTA, 40 mM MgAc (Sigma #229768), 1 mM DTT (Fluka #43816), NaOV 1 mM, 25 mM 2-glycerolphosphate (Sigma #G9891), in the presence of 2.5 mg/ml of peptide substrate poly-EY (Upstate #P0275), and 40 μM of ATP.
The dilution buffer for TrkB is as follows: 20 mM MOPS/NaOH pH7, 1 mM EDTA, 5% glycerol, 0.01% Brij35, 0.1% 2-mercapto, 1 mg/ml BSA.
as §1, §2

[4] = target: T4, PIM-1 (Homo sapiens, UniProt P11309); assay: Inhibition of kinase PIM-1 (Kinase-Glo); conditions: PIM-1 0.625 μg/ml, 10 μM ATP, forty minutes at 30° C.
T4 construct: purchased Upstate 14-573
T4 sequence (P11309 whole entry): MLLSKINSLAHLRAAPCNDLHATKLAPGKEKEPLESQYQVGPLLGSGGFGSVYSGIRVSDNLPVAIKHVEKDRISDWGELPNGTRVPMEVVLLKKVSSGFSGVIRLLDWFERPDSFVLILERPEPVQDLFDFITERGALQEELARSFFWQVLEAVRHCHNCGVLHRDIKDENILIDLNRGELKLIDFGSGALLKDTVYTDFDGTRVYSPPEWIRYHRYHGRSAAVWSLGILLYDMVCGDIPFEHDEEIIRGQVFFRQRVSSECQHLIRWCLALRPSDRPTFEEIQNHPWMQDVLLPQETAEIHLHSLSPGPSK
Protocol: Protein PIM-1 (Upstate #14-573 batch 25864U) is incubated at a concentration of 0.625 μg/ml in a buffer containing 8 mM of MOPS/NaOH pH7, 0.2 mM EDTA, 5 mM MgAc (Sigma #229768), 0.01% Triton Tx100, in the presence of 70 μM of peptide substrate S6 Kinase/Rsk2 (Upstate #12-243), and 10 μM of ATP.
The dilution buffer for PIM-1 is as follows: 20 mM MOPS/NaOH pH7, 1 mM EDTA, 5% glycerol, 0.01% Brij35, 0.1% 2-mercapto, 1 mg/ml BSA
as §1
as §2, with “forty minutes” for “two hours”

T1 sequence (P07949 29-1114): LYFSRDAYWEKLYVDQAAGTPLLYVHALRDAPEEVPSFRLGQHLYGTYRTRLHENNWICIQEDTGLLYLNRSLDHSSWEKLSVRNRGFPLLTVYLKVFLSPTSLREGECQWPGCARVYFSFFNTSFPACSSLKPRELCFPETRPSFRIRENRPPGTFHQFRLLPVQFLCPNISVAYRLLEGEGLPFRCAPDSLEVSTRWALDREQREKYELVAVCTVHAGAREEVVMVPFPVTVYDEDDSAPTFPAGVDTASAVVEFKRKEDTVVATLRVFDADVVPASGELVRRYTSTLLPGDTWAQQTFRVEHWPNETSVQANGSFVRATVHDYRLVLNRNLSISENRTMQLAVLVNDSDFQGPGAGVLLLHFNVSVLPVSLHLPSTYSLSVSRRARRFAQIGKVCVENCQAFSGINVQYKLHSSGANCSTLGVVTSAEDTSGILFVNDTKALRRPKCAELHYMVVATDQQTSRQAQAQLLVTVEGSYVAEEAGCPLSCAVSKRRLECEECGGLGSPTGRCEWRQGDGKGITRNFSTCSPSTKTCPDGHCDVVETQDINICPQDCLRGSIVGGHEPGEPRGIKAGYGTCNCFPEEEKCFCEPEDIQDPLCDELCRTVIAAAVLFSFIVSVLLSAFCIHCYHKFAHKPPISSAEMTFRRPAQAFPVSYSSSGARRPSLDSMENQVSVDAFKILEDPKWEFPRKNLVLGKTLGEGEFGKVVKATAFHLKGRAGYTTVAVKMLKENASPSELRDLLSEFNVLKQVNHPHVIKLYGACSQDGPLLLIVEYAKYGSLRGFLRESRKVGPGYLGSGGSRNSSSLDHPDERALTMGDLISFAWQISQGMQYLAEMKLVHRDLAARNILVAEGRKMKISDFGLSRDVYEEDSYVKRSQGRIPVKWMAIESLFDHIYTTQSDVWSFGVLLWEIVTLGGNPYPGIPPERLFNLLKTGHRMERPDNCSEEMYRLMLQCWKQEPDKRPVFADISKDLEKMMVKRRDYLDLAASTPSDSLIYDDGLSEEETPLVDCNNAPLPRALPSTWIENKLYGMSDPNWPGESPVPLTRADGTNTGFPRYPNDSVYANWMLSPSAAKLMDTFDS

| Structure (SMILES) | IC50 [1] [µM] | IC50 [2] [µM] | IC50 [3] [µM] | IC50 [4] [µM] |
| --- | --- | --- | --- | --- |
| CCOC(=O)c1c[nH]c2c(=O)[nH]c3ccc(NS(=O)(=O)c4cccc(F)c4)cc3c12 [Compound 44, 8-(3-Fluoro-benzenesulfonylamino)-4-oxo-4,5-dihydro-3H-pyrrolo[2,3-c]quinoline-1-ethyl carboxylate] | 0.1 to 1 | 1 to 10 | 1 to 10 |  |
| CCOC(=O)c1c[nH]c2c(=O)[nH]c3ccc(S(=O)(=O)Nc4cccc(OC)c4)cc3c12 [Compound 8, 8-(3-Methoxy-phenylsulfamoyl)-4-oxo-4,5-dihydro-3H-pyrrolo[2,3-c]quinoline-1-ethyl carboxylate] | 0.1 to 1 | 10 to 100 | 10 to 100 |  |
| CCOC(=O)c1c[nH]c2c(=O)[nH]c3ccc(-c4cccc(O)c4)cc3c12 [Compound 237, 8-(3-Hydroxy-phenyl)-4-oxo-4,5-dihydro-3H-pyrrolo[2,3-c]quinoline-1-ethyl carboxylate] | 0.1 to 1 | 1 to 10 | 0.1 to 1 | 1 to 10 |
| CCCOC(=O)c1c[nH]c2c(=O)[nH]c3ccc(S(=O)(=O)NC4CCNCC4)cc3c12 [Compound 114, 4-Oxo-8-(piperidin-4-ylsulfamoyl)-4,5-dihydro-3H-pyrrolo[2,3-c]quinoline-1-propyl carboxylate] | < 0.1 | 10 to 100 | 10 to 100 | 1 to 10 |
| CCOC(=O)c1c[nH]c2c(=O)[nH]c3ccc(-c4ccnc(Nc5nc6ccccc6[nH]5)n4)cc3c12 [Compound 267, 8-[2-(1H-Benzoimidazol-2-ylamino)-pyrimidin-4-yl]-4-oxo-4,5-dihydro-3H-pyrrolo[2,3-c]quinoline-1-ethyl carboxylate] | 1 to 10 | 10 to 100 | 10 to 100 |  |
| CCOC(=O)c1c[nH]c2c(=O)[nH]c3ccc(-c4cc[nH]n4)cc3c12 [Compound 282, 4-Oxo-8-(1H-pyrazol-3-yl)-4,5-dihydro-3H-pyrrolo[2,3-c]quinoline-1-ethyl carboxylate] | 0.1 to 1 | 10 to 100 | 10 to 100 | 10 to 100 |
| CCOC(=O)c1c[nH]c2c(=O)[nH]c3ccc(S(=O)(=O)N(C)c4ccccc4)cc3c12 [Compound 3, 8-(Methyl-phenylsulfamoyl)-4-oxo-4,5-dihydro-3H-pyrrolo[2,3-c]quinoline-1-ethyl carboxylate] | < 0.1 | 1 to 10 | 10 to 100 | 10 to 100 |
| O=C(OCC1CCCCC1)c1c[nH]c2c(=O)[nH]c3ccc(S(=O)(=O)NC4CCNCC4)cc3c12 [Compound 117] | 0.1 to 1 | 10 to 100 | 10 to 100 | 1 to 10 |
| CCNc1nccc(-c2ccc3[nH]c(=O)c4[nH]cc(C(=O)OCC)c4c3c2)n1 [Compound 264, 8-(2-Ethylamino-pyrimidin-4-yl)-4-oxo-4,5-dihydro-3H-pyrrolo[2,3-c]quinoline-1-ethyl carboxylate] | 0.1 to 1 | 10 to 100 | 10 to 100 | 1 to 10 |
| CCCCOC(=O)c1c[nH]c2c(=O)[nH]c3ccc(S(=O)(=O)NC4CCNCC4)cc3c12 [Compound 115, 4-Oxo-8-(piperidin-4-ylsulfamoyl)-4,5-dihydro-3H-pyrrolo[2,3-c]quinoline-1-carboxylate of butyl] | < 0.1 | 10 to 100 | 10 to 100 | 1 to 10 |
| CCOC(=O)c1c[nH]c2c(=O)[nH]c3ccc(NS(=O)(=O)c4ccc(C(C)(C)C)cc4)cc3c12 [Compound 49, 8-(4-tert-Butyl-benzenesulfonylamino)-4-oxo-4,5-dihydro-3H-pyrrolo[2,3-c]quinoline-1-ethyl carboxylate] | 10 to 100 | 10 to 100 | 1 to 10 |  |
| CCOC(=O)c1c[nH]c2c(=O)[nH]c3ccc(NS(=O)(=O)c4cccs4)cc3c12 [Compound 56, 4-Oxo-8-(thiophene-2-sulfonylamino)-4,5-dihydro-3H-pyrrolo[2,3-c]quinoline-1-ethyl carboxylate] | 0.1 to 1 | 1 to 10 | 1 to 10 |  |
| CCOC(=O)c1c[nH]c2c(=O)[nH]c3ccc(N(C)S(=O)(=O)c4ccccc4)cc3c12 [Compound 58, 8-(Benzenesulfonyl-methyl-amino)-4-oxo-4,5-dihydro-3H-pyrrolo[2,3-c]quinoline-1-ethyl carboxylate] | 0.1 to 1 | 1 to 10 | 1 to 10 |  |
| CCOC(=O)c1c[nH]c2c(=O)[nH]c3ccc(-c4cccc(N)c4)cc3c12 [Compound 234, Trifluoroacetate of 8-(3-aminophenyl)-4-oxo-4,5-dihydro-3H-pyrrolo[2,3-c]quinoline-1-ethyl carboxylate] | 0.1 to 1 | 1 to 10 | 1 to 10 |  |
| CCOC(=O)c1c[nH]c2c(=O)[nH]c3ccc(NS(=O)(=O)c4ccccc4)cc3c12 [Compound 37, 8-Benzenesulfonylamino-4-oxo-4,5-dihydro-3H-pyrrolo[2,3-c]quinoline-1-ethyl carboxylate] | 0.1 to 1 | 1 to 10 | 1 to 10 | 10 to 100 |
| CCOC(=O)c1c[nH]c2c(=O)[nH]c3ccc(NS(=O)(=O)c4ccc(F)cc4)cc3c12 [Compound 43, 8-(4-Fluoro-benzenesulfonylamino)-4-oxo-4,5-dihydro-3H-pyrrolo[2,3-c]quinoline-1-ethyl carboxylate] | 0.1 to 1 | 1 to 10 | 1 to 10 |  |
| CCOC(=O)c1c[nH]c2c(=O)[nH]c3ccc(S(=O)(=O)Nc4ccccc4)cc3c12 [Compound 2, 4-Oxo-8-phenylsulfamoyl-4,5-dihydro-3H-pyrrolo[2,3-c]quinoline-1-ethyl carboxylate] | < 0.1 | 1 to 10 | 1 to 10 |  |
| CCOC(=O)c1c[nH]c2c(=O)[nH]c3ccc(S(=O)(=O)N4CCCC4)cc3c12 [Compound 162, 4-Oxo-8-(pyrrolidine-1-sulfonyl)-4,5-dihydro-3H-pyrrolo[2,3-c]quinoline-1-ethyl carboxylate] | 0.1 to 1 | 1 to 10 | 1 to 10 |  |
| CCOC(=O)c1c[nH]c2c(=O)[nH]c3ccc(-c4ccnc(Nc5ccccc5)n4)cc3c12 [Compound 266, 4-Oxo-8-(2-phenylamino-pyrimidin-4-yl)-4,5-dihydro-3H-pyrrolo[2,3-c]quinoline-1-ethyl carboxylate] | 1 to 10 | 1 to 10 | 1 to 10 |  |
| CCOC(=O)c1c[nH]c2c(=O)[nH]c3ccc(NS(=O)(=O)c4ccccc4F)cc3c12 [Compound 45, 8-(2-Fluoro-benzenesulfonylamino)-4-oxo-4,5-dihydro-3H-pyrrolo[2,3-c]quinoline-1-ethyl carboxylate] | 1 to 10 | 1 to 10 | 1 to 10 |  |
| COC(=O)c1c[nH]c2c(=O)[nH]c3ccc(S(=O)(=O)NC4CCCCC4)cc3c12 [Compound 111, 8-Cyclohexylsulfamoyl-4-oxo-4,5-dihydro-3H-pyrrolo[2,3-c]quinoline-1-methyl carboxylate] | 1 to 10 | 1 to 10 | 1 to 10 |  |
| CCOC(=O)c1c[nH]c2c(=O)[nH]c3ccc(S(=O)(=O)Nc4ccc(C)cc4)cc3c12 [Compound 6, 4-Oxo-8-p-tolylsulfamoyl-4,5-dihydro-3H-pyrrolo[2,3-c]quinoline-1-ethyl carboxylate] | 0.1 to 1 | 10 to 100 | 10 to 100 |  |
